Data from ChEMBL document CHEMBL4390711, “New phenylpropanoid allopyranosides from the rhizomes of Cimicifuga dahurica” (Bioorg Med Chem Lett, 2019).

What follows are molecules tested on RAW264.7 (assay: Antiinflammatory activity against mouse RAW264.7 cells assessed as inhibition of LPS-induced PGE2 production preincubated for 1 hr followed by LPS-stimulation and measured after 18 hrs).
Format: functional, cell-based

Q: With `COc1cc(/C=C/C(=O)O[C@H](C(=O)O)[C@](O)(Cc2ccc(O)cc2)C(=O)O)ccc1O` [CIMICIFUGIC ACID E] as the molecule, how does the IC50 read?
A: 19.7 µM

Q: How did the IC50 turn out when `C[C@]12CCC(=O)C=C1CC[C@@H]1[C@@H]2[C@@H](O)C[C@@]2(C)[C@H]1CC[C@]2(O)C(=O)CO` [HYDROCORTISONE] was run?
A: 5.5 µM

Q: With `COc1cc(/C=C/C(=O)NCCc2ccc(O)cc2)ccc1O` [N-TRANS-FERULOYL TYRAMINE] as the molecule, how does the IC50 read?
A: 6.33 µM

Q: `COc1cc(/C=C/C(=O)NCCc2ccc(O)c(O)c2)ccc1O` [N-TRANS-FERULOYLDOPAMINE] was tested. Which IC50 did it give?
A: 39.9 µM
